# According to ChEMBL document CHEMBL1158292, “Progress in the discovery of biosynthetic anticancer drugs” (1996):
# Assays:
# Type in all cases: functional
# [1] = Growth inhibition of human lung cancer cells at 10^-10 M; settings: Cancer cell lines, read-out: GI
# [2] = Growth inhibition of human breast cancer cells at 10^-10 M; settings: Cancer cell lines, read-out: GI
# OVCAR-3 = experiment: In vivo antineoplastic activity against human OVCAR-3 cells at 25 ug/kg
# [3] = Growth inhibition of human renal cancer cells at 10^-10 M; settings: Cancer cell lines, read-out: GI
# [4] = Growth inhibition of human colon cancer cells at 10^-10 M; settings: Cancer cell lines, read-out: GI
# [5] = Growth inhibition of human ovarian cancer cells at 10^-10 M; settings: Cancer cell lines, read-out: GI
# P388 [6] = experiment: Antineoplastic activity against mouse P388 cells
# B16 = experiment: In vivo antineoplastic activity against mouse B16 cells at 11 ug/kg
# P388 [7] = experiment: Antineoplastic activity against mouse P388 cells at 3 mg/kg relative to control
# P388 [8] = experiment: Antineoplastic activity against mouse P388 cells at 12.5 mg/kg relative to control
# P388 [9] = experiment: Antineoplastic activity against mouse P388 cells at 32 mg/kg relative to control
# P388 [10] = experiment: Antineoplastic activity against mouse P388 cells at 100 mg/kg relative to control
structure (smiles),measurement,setting,value
C=C(Cl)/C=C/[C@H](O)CC(=C)C[C@H]1O[C@@H]2[C@H](C)[C@@H](OC(=O)C[C@@H]3C[C@@H](OC(C)=O)C[C@]4(C[C@](C)(O)C[C@@H](CC(=C)[C@H](C)[C@@H](OC(C)=O)[C@H](C)C(=O)C[C@H]5C[C@@H](OC)C[C@]6(C[C@H](O)C[C@@H](/C=C\CCC[C@@H]7O[C@@](O)(C[C@@H](O)[C@@H]7C)[C@H]2O)O6)O5)O4)O3)[C@@H]1O,inhibition of growth at 0.0001 µM,[1],50%
same,inhibition of growth at 0.0001 µM,[2],50%
same,Activity,OVCAR-3,70%
same,inhibition of growth at 0.0001 µM,[3],50%
same,inhibition of growth at 0.0001 µM,[4],50%
same,inhibition of growth at 0.0001 µM,[5],50%
C[C@@H]1[C@]2(O[C@H]3C=C4[C@@H]5CC[C@H]6Cc7nc8c(nc7C[C@]6(C)[C@H]5C[C@@H](O)[C@]4(C)[C@]31O)C[C@@H]1CC[C@H]3C4=CC[C@@H]5[C@H](C)[C@@]6(OC[C@]45C(=O)C[C@@H]3[C@@]1(C)C8)OC(C)(C)C[C@H]6O)O[C@](C)(CO)C[C@H]2O [CEPHALOSTATIN 1],ED50,P388 [6],1 ×10⁻⁹ ug/ml
CC[C@H](C)[C@@H]([C@@H](CC(=O)N1CCC[C@H]1[C@H](OC)[C@@H](C)C(=O)N[C@@H](Cc1ccccc1)c1nccs1)OC)N(C)C(=O)[C@@H](NC(=O)[C@H](C(C)C)N(C)C)C(C)C [DOLASTATIN-10],Activity,B16,80%
C=C1C(=O)O[C@@H]2C[C@@H](C)[C@@H]3C=CC(=O)[C@@]3(C)[C@@H](O)[C@H]12 [HELENALIN],T/C,P388 [7],220
C=C1C(=O)O[C@@H]2[C@H](O)[C@@H](C)[C@@H]3C=CC(=O)[C@@]3(C)[C@@H](OC(=O)/C(C)=C\C)[C@H]12 [MULTIGILIN],T/C,P388 [8],164
C=C1C(=O)O[C@@H]2C(=O)[C@@H](C)[C@@H]3C=CC(=O)[C@@]3(C)[C@@H](OC(=O)/C(C)=C\C)[C@H]12 [MULTISTATIN],T/C,P388 [9],131
NCCS(=O)(=O)O [TAURINE],T/C,P388 [10],123
